# Measurements reported in ChEMBL document CHEMBL5042556, “Lead Optimization to Advance Protease-Activated Receptor-1 Antagonists in Early Discovery” (J Med Chem, 2022).
# Assays:
# [1] = Clearance in rat at 3 mg/kg, iv; format: ADME, organism-based; details: in vivo
# [2] = target: T1, Proteinase-activated receptor 1 (Homo sapiens, UniProt P25116); assay: Antagonist activity at human PAR-1 expressed in HEK293 cells assessed as reduction in TRAP induced calcium signal at 3 uM by FLIPR analysis; format: functional, cell-based
# T1 sequence (P25116 whole entry): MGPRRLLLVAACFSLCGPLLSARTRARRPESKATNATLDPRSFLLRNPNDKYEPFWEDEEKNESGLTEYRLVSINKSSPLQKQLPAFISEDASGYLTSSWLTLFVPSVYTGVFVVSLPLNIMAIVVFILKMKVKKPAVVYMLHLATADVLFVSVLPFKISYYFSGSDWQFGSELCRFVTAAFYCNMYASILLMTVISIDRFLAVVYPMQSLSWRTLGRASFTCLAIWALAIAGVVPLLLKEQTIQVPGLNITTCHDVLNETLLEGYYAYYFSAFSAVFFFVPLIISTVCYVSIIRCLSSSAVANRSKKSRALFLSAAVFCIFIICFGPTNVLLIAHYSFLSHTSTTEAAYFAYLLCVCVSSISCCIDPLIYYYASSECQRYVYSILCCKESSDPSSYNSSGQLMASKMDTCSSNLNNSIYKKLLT
# [3] = Volume of distribution in cynomolgus monkey at 0.3 mg/kg, iv; format: ADME, organism-based, Macaca fascicularis; details: in vivo
# [4] = Clearance in human hepatocyte measured per 10^6 cells; format: ADME, cell-based; details: hepatocytes
# [5] = Apparent permeability in MDCKII-LE cells; format: ADME, cell-based, Canis lupus familiaris; details: dog, MDCK
# [6] = Cmax in Sprague-Dawley rat at 50 mg/kg, po; format: ADME, organism-based; set-up: route oral, dose 50 mg/kg; details: in vivo
# [7] = AUC in Sprague-Dawley rat at 30 mg/kg, po; format: ADME, organism-based; set-up: dose 30 mg/kg; details: in vivo
# [8] = Cmax in Sprague-Dawley rat at 3 mg/kg, po; format: ADME, organism-based; set-up: route oral, dose 3 mg/kg; details: in vivo
# [9] = Cmax in Sprague-Dawley rat at 30 mg/kg, po; format: ADME, organism-based; set-up: route oral, dose 30 mg/kg; details: in vivo
# [10] = Unbound clearance in cynomolgus monkey at 0.3 mg/kg, iv; format: ADME, organism-based, Macaca fascicularis; details: in vivo
# [11] = MRT in rat at 3 mg/kg, iv; format: ADME, organism-based; details: in vivo
# [12] = Cmax in Sprague-Dawley rat at 10 mg/kg, po; format: ADME, organism-based; set-up: route oral, dose 10 mg/kg; details: in vivo
# [13] = MRT in cynomolgus monkey at 1 mg/kg, iv; format: ADME, organism-based, Macaca fascicularis; details: in vivo
# [14] = AUC in Sprague-Dawley rat at 50 mg/kg, po; format: ADME, organism-based; set-up: dose 50 mg/kg; details: in vivo
# [15] = AUC in Sprague-Dawley rat at 3 mg/kg, po; format: ADME, organism-based; set-up: dose 3 mg/kg; details: in vivo
# [16] = Plasma protein binding in cynomolgus monkey assessed as unbound fraction; format: ADME, cell-free, Macaca fascicularis
# [17] = Oral bioavailability in rat at 10 mg/kg; format: ADME, organism-based; details: in vivo
# [18] = Toxicity in rat assessed as non-toxic AUC for liver bioactivation at 30 mg/kg; format: organism-based; details: in vivo
# [19] = Oral bioavailability in cynomolgus monkey at 1 mg/kg,; format: ADME, organism-based, Macaca fascicularis; details: in vivo
# [20] = Unbound clearance in rat at 3 mg/kg, iv; format: ADME, organism-based; details: in vivo
# [21] = Toxicity in rat assessed as non-toxic AUC for tissue toxicity at 30 mg/kg; format: organism-based; details: in vivo
# [22] = Dose normalized AUC in Sprague-Dawley rat at 3 mg/kg, po; format: ADME, organism-based; details: in vivo
# [23] = Dose normalized Cmax in Sprague-Dawley rat at 30 mg/kg, po; format: ADME, organism-based; details: in vivo
# [24] = Dose normalized Cmax in Sprague-Dawley rat at 3 mg/kg, po; format: ADME, organism-based; details: in vivo
# [25] = Clearance in cynomolgus monkey at 0.3 mg/kg, iv; format: ADME, organism-based, Macaca fascicularis; details: in vivo
# [26] = Ex vivo inhibition of PAR-1 in cynomolgus monkey whole blood assessed as inhibition of TRAP-induced platelet aggregation at 0.3 mg/kg, po measured after 24 hrs; format: functional; details: Macaca fascicularis
# [27] = Clearance in dog hepatocyte measured per 10^6 cells; format: ADME, cell-based, Canis lupus familiaris; details: hepatocytes
# [28] = Oral bioavailability in dog at 1 mg/kg; format: ADME, organism-based, Canis lupus familiaris; details: in vivo
# [29] = Unbound volume of distribution in cynomolgus monkey at 0.3 mg/kg, iv; format: ADME, organism-based, Macaca fascicularis; details: in vivo
# [30] = Volume of distribution in rat at 0.3 mg/kg, iv; format: ADME, organism-based; details: in vivo
# [31] = Dose normalized Cmax in Sprague-Dawley rat at 50 mg/kg, po; format: ADME, organism-based; details: in vivo
# [32] = Ex vivo inhibition of PAR-1 in cynomolgus monkey whole blood assessed as inhibition of TRAP-induced platelet aggregation at 1 mg/kg, po measured after 24 hrs; format: functional; details: Macaca fascicularis
# [33] = Unbound volume of distribution in dog at 0.3 mg/kg, iv; format: ADME, organism-based, Canis lupus familiaris; details: in vivo
# [34] = AUC in Sprague-Dawley rat at 10 mg/kg, po; format: ADME, organism-based; set-up: dose 10 mg/kg; details: in vivo
# [35] = Dose normalized AUC in Sprague-Dawley rat at 30 mg/kg, po; format: ADME, organism-based; details: in vivo
# [36] = Dose normalized AUC in Sprague-Dawley rat at 50 mg/kg, po; format: ADME, organism-based; details: in vivo
# [37] = Volume of distribution in dog at 0.3 mg/kg, iv; format: ADME, organism-based, Canis lupus familiaris; details: in vivo
# [38] = Plasma protein binding in rat assessed as unbound fraction; format: ADME, cell-free
# [39] = Plasma protein binding in dog assessed as unbound fraction; format: ADME, cell-free, Canis lupus familiaris
# [40] = MRT in dog at 0.3 mg/kg, iv; format: ADME, organism-based, Canis lupus familiaris; details: in vivo
# [41] = MRT in rat at 1 mg/kg, iv; format: ADME, organism-based; details: in vivo
# [42] = Dose normalized Cmax in Sprague-Dawley rat at 10 mg/kg, po; format: ADME, organism-based; details: in vivo
# [43] = Clearance in mouse hepatocyte measured per 10^6 cells; format: ADME, cell-based; details: hepatocytes
# [44] = Clearance in dog at 0.3 mg/kg, iv; format: ADME, organism-based, Canis lupus familiaris; details: in vivo
# [45] = Clearance in rat hepatocyte measured per 10^6 cells; format: ADME, cell-based; details: hepatocytes
# [46] = Unbound volume of distribution in rat at 3 mg/kg, iv; format: ADME, organism-based; details: in vivo
# [47] = Dose normalized AUC in Sprague-Dawley rat at 10 mg/kg, po; format: ADME, organism-based; details: in vivo
compound,measurement,setting,value
C[C@H]1OC(=O)[C@]2(N)CC(F)(F)[C@@H](C)[C@H](/C=C/c3ccc(-c4ccccc4C#N)cn3)[C@H]12,clearance,[1],31 mL/min/kg
same,IC50,[2],7 nM
same,Vd,[3],2.5 L/kg
same,CLint,[4],1.1 µL/min/1e6 cells
same,Papp,[5],38.3 ×10⁻⁶ cm/s
same,Cmax,[6],28 µM
same,AUC,[7],97 µM·h
same,Cmax,[8],0.36 µM
same,Cmax,[9],12 µM
same,CL free,[10],12 mL/min/kg
same,MRT,[11],1.9 h
same,Cmax,[12],5.6 µM
same,MRT,[13],24 h
same,AUC,[14],191 µM·h
same,AUC,[15],1.31 µM·h
same,fraction unbound,[16],0.15
same,bioavailability,[17],54%
same,AUC,[18],44 µM·h
same,bioavailability,[19],37%
same,CL free,[20],352 mL/min/kg
same,AUC,[21],44 µM·h
same,AUCt/dose,[22],0.44 µM·h
same,Cmax/dose,[23],0.4 µM
same,Cmax/dose,[24],0.12 µM
same,clearance,[25],12 mL/min/kg
same,inhibition in vivo at 0.3 mg/kg,[26],100%
same,CLint,[27],2 µL/min/1e6 cells
same,bioavailability,[28],100%
same,Vdu,[29],17 L/kg
same,Vd,[30],3.6 L/kg
same,Cmax/dose,[31],0.56 µM
same,inhibition in vivo at 1 mg/kg,[32],100%
same,Vdu,[33],41 L/kg
same,AUC,[34],12.1 µM·h
same,AUCt/dose,[35],3.2 µM·h
same,AUCt/dose,[36],3.8 µM·h
same,Vd,[37],6.3 L/kg
same,fraction unbound,[38],0.09
same,fraction unbound,[39],0.15
same,MRT,[40],18 h
same,MRT,[41],1.4 h
same,Cmax/dose,[42],0.56 µM
same,CLint,[43],3.3 µL/min/1e6 cells
same,clearance,[44],5.9 mL/min/kg
same,CLint,[45],13 µL/min/1e6 cells
same,Vdu,[46],41 L/kg
same,AUCt/dose,[47],1.2 µM·h
